Laboratory results taken from article PMC2849157 (Bioorganic & medicinal chemistry letters, 2010).

Columns and labels:
HIV = assay: anti-HIV activity, cellular assay; format: cell-based, human immunodeficiency virus 1 (HIV); details: for EC50: Human immunodeficiency virus 1, MT2, read-out: EC50, anti-HIV activity; for antiviral activity: in words
HCV = assay: anti-HCV activity; format: cell-based; details: Hepatitis C virus, read-out: EC50, anti-HCV activity
hepatitis B virus (HBV) = assay: effect on replication of HBV; format: cell-based
HSV-2 = assay: effect on replication of HSV-2; format: cell-based
[1] = tested on: herpes simplex virus-1 (HSV-1); assay: effect on replication of HSV-1; format: cell-based
MT-2 = assay: cytotoxicity; format: cell-based, human; details: MT-2 cellular assay

| SMILES | EC50 (HIV) | EC50 (HCV) | antiviral activity (HIV) | further results |
| --- | --- | --- | --- | --- |
| CCCCOc1c2cc(C(=O)Nc3cc(C(=O)O)cc(C(=O)O)c3)cc1Cc1cc(C(=O)Nc3cc(C(=O)O)cc(C(=O)O)c3)cc(c1OCCCC)Cc1cc(C(=O)Nc3cc(C(=O)O)cc(C(=O)O)c3)cc(c1OCCCC)Cc1cc(C(=O)Nc3cc(C(=O)O)cc(C(=O)O)c3)cc(c1OCCCC)C2 [Compound 2] | 300 nM | 1800 nM | – | potency against different laboratory HIV strains (HIV; HIV-IIIB, NL-43, LaiM184V): equally potent; antiviral activity in different cell lines (HIV; MT-2, CEMx174, TZM-bl): antiviral activity was retained in all these cell lines; effect on the replication of HBV (hepatitis B virus (HBV)): no effect; effect on the replication of HSV-2 (HSV-2): no effect; effect on the replication of HSV-1 [1]: no effect |
| CCCCOc1c2cc(C(=O)Nc3cc(C(=O)O)cc(C(=O)NC4CCCCC4)c3)cc1Cc1cc(C(=O)Nc3cc(C(=O)O)cc(C(=O)NC4CCCCC4)c3)cc(c1OCCCC)Cc1cc(C(=O)Nc3cc(C(=O)O)cc(C(=O)NC4CCCCC4)c3)cc(c1OCCCC)Cc1cc(C(=O)Nc3cc(C(=O)O)cc(C(=O)NC4CCCCC4)c3)cc(c1OCCCC)C2 [Compound 3] | – | – | little to no antiviral activity | – |
| O=C(O)c1cc(NC(=O)c2cc3c(O)c(c2)Cc2cc(C(=O)Nc4cc(C(=O)O)cc(C(=O)O)c4)cc(c2O)Cc2cc(C(=O)Nc4cc(C(=O)O)cc(C(=O)O)c4)cc(c2O)Cc2cc(C(=O)Nc4cc(C(=O)O)cc(C(=O)O)c4)cc(c2O)C3)cc(C(=O)O)c1 [Compound 9] | 6700 nM | > 50000 nM | – | – |
| CCCCOc1c2cc(C(=O)Nc3cc(C(=O)O)cc(C(=O)OCc4ccccc4)c3)cc1Cc1cc(C(=O)Nc3cc(C(=O)O)cc(C(=O)OCc4ccccc4)c3)cc(c1OCCCC)Cc1cc(C(=O)Nc3cc(C(=O)O)cc(C(=O)OCc4ccccc4)c3)cc(c1OCCCC)Cc1cc(C(=O)Nc3cc(C(=O)O)cc(C(=O)OCc4ccccc4)c3)cc(c1OCCCC)C2 [Compound 1] | – | – | little to no antiviral activity | – |
| CCCCOc1c2cc(C(=O)NCCN)cc1Cc1cc(C(=O)NCCN)cc(c1OCCCC)Cc1cc(C(=O)NCCN)cc(c1OCCCC)Cc1cc(C(=O)NCCN)cc(c1OCCCC)C2 [Compound 7] | – | – | lack of antiviral activity | – |
| O=C(O)c1cc(NC(=O)c2cc3c(OCc4ccccc4)c(c2)Cc2cc(C(=O)Nc4cc(C(=O)O)cc(C(=O)O)c4)cc(c2OCc2ccccc2)Cc2cc(C(=O)Nc4cc(C(=O)O)cc(C(=O)O)c4)cc(c2OCc2ccccc2)Cc2cc(C(=O)Nc4cc(C(=O)O)cc(C(=O)O)c4)cc(c2OCc2ccccc2)C3)cc(C(=O)O)c1 [Compound 11] | 300 nM | 1400 nM | – | ID50 (toxicity) (MT-2): 18000 nM |
